According to patent US20150105252A1, “SUBSTITUTED PYRAZOLES AS HERBICIDES” (E I DU PONT DE NEMOURS AND COMPANY, priority 2013, published 2015):

Assays:
barnyardgrass = assay: Test B flood; format: in vivo, Echinochloa crus-galli; conditions: 250 g ai/ha, visual rating on 0 to 100 scale (0 no effect, 100 complete control), 13 to 15 days
In short: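 Plants were grown to the 2-leaf stage and pots flooded to 3 cm above soil. Compounds were applied directly into the paddy water, with depth kept for the test. After 13–15 days in greenhouse, response was rated visually against controls on a 0 (no effect) to 100 (complete control) scale.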

wheat [1] = assay: Test C postemergence; format: in vivo, Triticum aestivum; conditions: for Plant response rating (scale of 0 to 100 where 0 is no effect and 100 is complete control), Wheat: Postemergence, 31 g ai/ha, visually evaluated after 13 to 15 days; for Wheat plant response rating / Plant response rating, Wheat: postemergence; for Wheat plant response rating: 62 g ai/ha, scale 0 to 100
In short: (§1)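 Herbicidal effect is expressed as percent visual control (0–100) judged against untreated plants 13 to 15 days after treatment in the greenhouse. Preemergence pots contained seeds in a soil–sand blend; postemergence plants, 2–18 cm tall, grew in peat-based planting medium.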

oilseed rape = assay: Test C preemergence; format: in vivo, Brassica napus; conditions: for Plant response rating (scale of 0 to 100), Oilseed Rape: Preemergence, 250 g ai/ha; for Oilseed Rape plant response rating / Plant response rating, Oilseed Rape: preemergence; for Plant response rating, Oilseed Rape: 62 g ai/ha, scale 0 to 100, 0 = no effect, 100 = complete control
In short: as §1

ragweed = assay: Test C postemergence; format: in vivo, Ambrosia elation; conditions: for Plant response rating (scale of 0 to 100 where 0 is no effect and 100 is complete control), Ragweed: Postemergence, 31 g ai/ha, visually evaluated after 13 to 15 days; for Ragweed plant response rating / Plant response rating, Ragweed: postemergence; for Ragweed plant response rating: 62 g ai/ha, scale 0 to 100
In short: as §1

wheat [2] = assay: Test C preemergence; format: in vivo, Triticum aestivum; conditions: for Plant response rating (scale of 0 to 100), Wheat: Preemergence, 250 g ai/ha; for Wheat plant response rating / Plant response rating, Wheat: preemergence; for Plant response rating, Wheat: 62 g ai/ha, scale 0 to 100, 0 = no effect, 100 = complete control
In short: as §1

ryegrass, Italian = assay: Test C preemergence; format: in vivo, Lolium multiflorum; conditions: for Plant response rating (scale of 0 to 100), Ryegrass, Italian: Preemergence, 250 g ai/ha; for Ryegrass, Italian plant response rating / Plant response rating, Ryegrass, Italian: preemergence; for Plant response rating, Ryegrass, Italian: 62 g ai/ha, scale 0 to 100, 0 = no effect, 100 = complete control
In short: as §1

corn = assay: Test C postemergence; format: in vivo, Zea mays; conditions: for Plant response rating (scale of 0 to 100 where 0 is no effect and 100 is complete control), Corn: Postemergence, 31 g ai/ha, visually evaluated after 13 to 15 days; for Corn plant response rating / Plant response rating, Corn: postemergence; for Corn plant response rating: 62 g ai/ha, scale 0 to 100
In short: as §1

galium = assay: Test C preemergence; format: in vivo, Galium aparine; conditions: for Plant response rating (scale of 0 to 100), Galium: Preemergence, 250 g ai/ha; for Galium plant response rating / Plant response rating, Galium: preemergence; for Plant response rating, Galium: 62 g ai/ha, scale 0 to 100, 0 = no effect, 100 = complete control
In short: as §1

pigweed [3] = assay: Test C postemergence; format: in vivo, Amaranthus retroflexus; conditions: for Plant response rating (scale of 0 to 100 where 0 is no effect and 100 is complete control), Pigweed: Postemergence, 31 g ai/ha, visually evaluated after 13 to 15 days; for Pigweed plant response rating / Plant response rating, Pigweed: postemergence; for Pigweed plant response rating: 62 g ai/ha, scale 0 to 100
In short: as §1

chickweed = assay: Test C postemergence; format: in vivo, Stellaria media; conditions: for Plant response rating (scale of 0 to 100 where 0 is no effect and 100 is complete control), Chickweed: Postemergence, 31 g ai/ha, visually evaluated after 13 to 15 days; for Chickweed plant response rating / Plant response rating, Chickweed: postemergence; for Chickweed plant response rating: 62 g ai/ha, scale 0 to 100
In short: as §1

johnsongrass = assay: Test C postemergence; format: in vivo, Sorghum halepense; conditions: for Plant response rating (scale of 0 to 100 where 0 is no effect and 100 is complete control), Johnsongrass: Postemergence, 31 g ai/ha, visually evaluated after 13 to 15 days; for Johnsongrass plant response rating / Plant response rating, Johnsongrass: postemergence; for Johnsongrass plant response rating: 62 g ai/ha, scale 0 to 100
In short: as §1

pigweed [4] = assay: Test A preemergence; format: in vivo, Amaranthus retroflexus; conditions: preemergence
In short: (§2)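 Scoring was visual, on a scale where 100 means complete control and 0 means no effect, comparing treated with untreated plants around 10 days post-application. Compounds in surfactant-containing non-phytotoxic solvent were sprayed onto soil preemergence or onto one- to two-leaf seedlings (2–10 cm) postemergence.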

soybean = assay: Test C postemergence; format: in vivo, Glycine max; conditions: for Plant response rating (scale of 0 to 100 where 0 is no effect and 100 is complete control), Soybean: Postemergence, 31 g ai/ha, visually evaluated after 13 to 15 days; for Soybean plant response rating / Plant response rating, Soybean: postemergence; for Soybean plant response rating: 62 g ai/ha, scale 0 to 100
In short: as §1

velvetleaf = assay: Test A preemergence; format: in vivo, Abutilon theophrasti; conditions: preemergence
In short: as §2

[5] = 250 g ai/ha, scale 0 to 100 (0 no effect, 100 complete control)
[6] = 125 g ai/ha, scale 0 to 100, 0 no effect, 100 complete control
[7] = 31 g ai/ha, visual rating, scale 0 to 100 (0 no effect, 100 complete control), 13 to 15 days
[8] = 125 g ai/ha, scale 0 to 100, 0 is no effect, 100 is complete control
[9] = 125 g ai/ha, visual injury, 0 to 100 scale, approx. 10 days
[10] = 500 g ai/ha, visual injury after approx. 10 days, 0 to 100 scale (0 no effect, 100 complete control)

SMILES: CCc1cc(C(=O)NC(C)C)nn1Cc1ccnc(C(F)(F)F)c1 [Compound 103]
- Plant response rating, Barnyardgrass (barnyardgrass): 40
- Plant response rating (scale of 0 to 100 where 0 is no effect and 100 is complete control), Wheat (wheat [1]): 0
- Wheat plant response rating (wheat [1]): 5
- Plant response rating, Wheat (wheat [1]; [5]): 15
- Plant response rating, Wheat (wheat [1]; [6]): 5
- Plant response rating (scale of 0 to 100), Oilseed Rape (oilseed rape): 100
- Oilseed Rape plant response rating (oilseed rape; [7]): 100
- Plant response rating, Oilseed Rape (oilseed rape; 13 to 15 days): 100
- Oilseed Rape plant response rating (oilseed rape; [8]): 100
- Plant response rating (scale of 0 to 100 where 0 is no effect and 100 is complete control), Ragweed (ragweed): 35
- Ragweed plant response rating (ragweed): 70
- Plant response rating, Ragweed (ragweed; [5]): 90
- Plant response rating, Ragweed (ragweed; [6]): 80
- Plant response rating (scale of 0 to 100), Wheat (wheat [2]): 98
- Wheat plant response rating (wheat [2]; [7]): 10
- Plant response rating, Wheat (wheat [2]; 13 to 15 days): 90
- Wheat plant response rating (wheat [2]; [8]): 95
- Plant response rating (scale of 0 to 100), Ryegrass, Italian (ryegrass, Italian): 98
- Ryegrass, Italian plant response rating (ryegrass, Italian; [7]): 75
- Plant response rating, Ryegrass, Italian (ryegrass, Italian; 13 to 15 days): 95
- Ryegrass, Italian plant response rating (ryegrass, Italian; [8]): 95
- Plant response rating (scale of 0 to 100 where 0 is no effect and 100 is complete control), Corn (corn): 10
- Corn plant response rating (corn): 15
- Plant response rating, Corn (corn; [5]): 95
- Plant response rating, Corn (corn; [6]): 35
- Plant response rating (scale of 0 to 100), Galium (galium): 100
- Galium plant response rating (galium; [7]): 100
- Plant response rating, Galium (galium; 13 to 15 days): 100
- Galium plant response rating (galium; [8]): 100
- Plant response rating (scale of 0 to 100 where 0 is no effect and 100 is complete control), Pigweed (pigweed [3]): 50
- Pigweed plant response rating (pigweed [3]): 50
- Plant response rating, Pigweed (pigweed [3]; [5]): 80
- Plant response rating, Pigweed (pigweed [3]; [6]): 65
- Plant response rating (scale of 0 to 100 where 0 is no effect and 100 is complete control), Chickweed (chickweed): 50
- Chickweed plant response rating (chickweed): 60
- Plant response rating, Chickweed (chickweed; [5]): 85
- Plant response rating, Chickweed (chickweed; [6]): 75
- Plant response rating (scale of 0 to 100 where 0 is no effect and 100 is complete control), Johnsongrass (johnsongrass): 5
- Johnsongrass plant response rating (johnsongrass): 10
- Plant response rating, Johnsongrass (johnsongrass; [5]): 95
- Plant response rating, Johnsongrass (johnsongrass; [6]): 20
- Pigweed plant response rating (pigweed [4]; [9]): 100
- Pigweed plant response rating (pigweed [4]; [10]): 100
- Plant response rating (scale of 0 to 100 where 0 is no effect and 100 is complete control), Soybean (soybean): 45
- Soybean plant response rating (soybean): 70
- Plant response rating, Soybean (soybean; [5]): 98
- Plant response rating, Soybean (soybean; [6]): 95
- Velvetleaf plant response rating (velvetleaf; [9]): 100
- Velvetleaf plant response rating (velvetleaf; [10]): 100

SMILES: CCOc1cc(C(=O)NCC(F)(F)F)nn1Cc1ccnc(C(F)(F)F)c1 [Compound 104]
- Plant response rating, Barnyardgrass (barnyardgrass): 75
- Plant response rating (scale of 0 to 100 where 0 is no effect and 100 is complete control), Wheat (wheat [1]): 5
- Wheat plant response rating (wheat [1]): 10
- Plant response rating, Wheat (wheat [1]; [5]): 25
- Plant response rating, Wheat (wheat [1]; [6]): 10
- Plant response rating (scale of 0 to 100), Oilseed Rape (oilseed rape): 100
- Oilseed Rape plant response rating (oilseed rape; [7]): 100
- Plant response rating, Oilseed Rape (oilseed rape; 13 to 15 days): 100
- Oilseed Rape plant response rating (oilseed rape; [8]): 100
- Plant response rating (scale of 0 to 100 where 0 is no effect and 100 is complete control), Ragweed (ragweed): 85
- Ragweed plant response rating (ragweed): 85
- Plant response rating, Ragweed (ragweed; [5]): 95
- Plant response rating, Ragweed (ragweed; [6]): 95
- Plant response rating (scale of 0 to 100), Wheat (wheat [2]): 90
- Wheat plant response rating (wheat [2]; [7]): 40
- Plant response rating, Wheat (wheat [2]; 13 to 15 days): 60
- Wheat plant response rating (wheat [2]; [8]): 90
- Plant response rating (scale of 0 to 100), Ryegrass, Italian (ryegrass, Italian): 95
- Ryegrass, Italian plant response rating (ryegrass, Italian; [7]): 80
- Plant response rating, Ryegrass, Italian (ryegrass, Italian; 13 to 15 days): 90
- Ryegrass, Italian plant response rating (ryegrass, Italian; [8]): 95
- Plant response rating (scale of 0 to 100 where 0 is no effect and 100 is complete control), Corn (corn): 5
- Corn plant response rating (corn): 35
- Plant response rating, Corn (corn; [5]): 95
- Plant response rating, Corn (corn; [6]): 35
- Plant response rating (scale of 0 to 100), Galium (galium): 100
- Galium plant response rating (galium; [7]): 90
- Plant response rating, Galium (galium; 13 to 15 days): 98
- Galium plant response rating (galium; [8]): 100
- Plant response rating (scale of 0 to 100 where 0 is no effect and 100 is complete control), Pigweed (pigweed [3]): 50
- Pigweed plant response rating (pigweed [3]): 85
- Plant response rating, Pigweed (pigweed [3]; [5]): 98
- Plant response rating, Pigweed (pigweed [3]; [6]): 95
- Plant response rating (scale of 0 to 100 where 0 is no effect and 100 is complete control), Chickweed (chickweed): 55
- Chickweed plant response rating (chickweed): 70
- Plant response rating, Chickweed (chickweed; [5]): 90
- Plant response rating, Chickweed (chickweed; [6]): 80
- Plant response rating (scale of 0 to 100 where 0 is no effect and 100 is complete control), Johnsongrass (johnsongrass): 5
- Johnsongrass plant response rating (johnsongrass): 15
- Plant response rating, Johnsongrass (johnsongrass; [5]): 85
- Plant response rating, Johnsongrass (johnsongrass; [6]): 40
- Pigweed plant response rating (pigweed [4]; [9]): 100
- Pigweed plant response rating (pigweed [4]; [10]): 100
- Plant response rating (scale of 0 to 100 where 0 is no effect and 100 is complete control), Soybean (soybean): 90
- Soybean plant response rating (soybean): 95
- Plant response rating, Soybean (soybean; [5]): 95
- Plant response rating, Soybean (soybean; [6]): 95
- Velvetleaf plant response rating (velvetleaf; [9]): 100
- Velvetleaf plant response rating (velvetleaf; [10]): 100
